Reference: patent US7128912B2, “Fibronectin binding protein compositions and methods of use” (The Texas A&M University System, priority 1997, dated 2006)

B1: modified rFnBD-D: rFnBD-D chemically modified with EDC (protein)
chain: GQNSGNQSFEEDTEEDKPKYEQGGNIVDIDFDSVPQIHGQNKGNQSFEEDTEKDKPKYEHGGNIIDIDFDSVPHIHGFNKHTEIIEEDTNKDKPSYQFGGHNSVDFEEDTLPKVSGQNEGQQTIEEDTTPPIVP
modifications: left off: small tags and cut ends
notes: rFnBD-D chemically modified with EDC
B2: native rFnBD-D: recombinant version of the S. aureus Fn-binding MSCRAMM repeat domain (protein)
chain: B1 chain
modifications: left off: small tags and cut ends

Tested on: S. aureus
Assay: Inhibition of Fn binding to S. aureus (rFnBD-D, EDC-modified rFnBD-D, immune IgG)
Format: cell-based, Staphylococcus aureus
Conditions: not given
Source text: Based on this observation, the inventors hypothesized that only Fn-binding MSCRAMMs that lack binding activity should lead to blocking antibodies. A recombinant version of the Fn-binding MSCRAMM rFnBD-D was chemically modified with EDC as previously described (McGavin et al., 1991) and tested for its ability to inhibit Fn binding to S. aureus. […] The chemically modified rFnBD-D was then used to immunize rabbits. […] With efficiencies of approximately 98%, chemical modification had the advantage of providing a quick and efficient method for probing entire classes of amino acids. However, an inherent disadvantage in this global approach is that the contribution to binding of individual amino acids was not detected.

Row | Molecule | inhibition of Fn binding to S. aureus
1 | B1 | no inhibitory activity
2 | B2 | inhibited Fn binding to S. aureus in a dose-dependent manner

Tested on: S. aureus strain Cowan binding to immobilized fibronectin
Assay: Inhibition of biotinylated S. aureus binding to immobilized fibronectin by synthetic peptides (ELISA)
Format: cell-based, Staphylococcus aureus
Conditions: 250 μg peptide (FIG. 3B)
Method: FIG. 2A, FIG. 2B and FIG. 2C. Inhibition of S. aureus binding to immobilized fibronectin by wild-type and mutant D3 peptides 1 through 21 (Table 3). NP indicates the amount of adherent bacteria in the absence of inhibitor. FIG. 2A. Peptides tested at 5 μg/well. FIG. 2B. Peptides tested at 50 μg/well. FIG. 2C. Peptides tested at 250 μg/well.
FIG. 3A and FIG. 3B. FIG. 3A. Inhibition of S. aureus binding to immobilized fibronectin by wild-type peptides D1 and D2 and mutant derivatives. NP indicates the amount of adherent bacteria in the absence of inhibitor. All peptides were tested at 10 μg/well. FIG. 3B. Inhibition of S. aureus binding to immobilized fibronectin by wild-type peptides D1. D2 and DU and mutant derivatives. NP indicates the amount of adherent bacteria in the absence of inhibitor. All peptides were tested at 250 μg/well.
S. aureus strain Cowan was cultured under constant rotation for 15 h at 37° C. in brain heart infusion (BHI; Difco) broth. Bacteria were harvested by centrifugation, resuspended in a bicarbonate buffer (50 mM NaHCO3, pH 8.5) to a final density of 10^10 cells/ml determined by comparing the absorbance at 600 nm of the sample with a previously prepared standard curve relating A600 to cells counted in a Petroff Hausser chamber. Bacterial cells were labeled with biotin by the addition of 100 μl of 1% NHS-biotin/ml of bacterial suspension (Pierce, Rockford, Ill.) in N,N-dimethylformamide. The staphylococcal cells were incubated with the NHS-biotin for 2 h at room temperature with constant rotation. The biotinylation reaction was stopped by removing the supernatant after centrifugation of the bacterial cells. The bacteria were then washed three times in PBS to remove unincorporated biotin. The bacterial cell suspensions were then adjusted to 1×10^10 cells/ml and the cells were stored at 4° C. in PBS, pH 7.4. To prevent unbiotinylated bacteria from growing and to reduce background, sodium azide and 0.1% BSA were added.
A series of peptides, based on the D3 repeat of S. aureus FnBPA, were synthesized to contain a proline residue at each position throughout the entire sequence (i.e., proline scan; Table 3). The mutated peptides were initially tested for their ability to inhibit biotinylated S. aureus binding to immobilized fibronectin. Wells on a 96-well Immulon II plate were coated with […] of a 30 μg/ml solution of purified Fn, either for 2 hr at room temperature or overnight at 4° C. Wells were washed three times with 1× phosphate buffered saline (PBS)-0.05% Tween-80 and blocked for 1 hr with PBS containing 0.01% Tween-80 and 1% BSA. After 1 hr, wells were washed again with PBS containing 0.05% Tween-80. Synthetic peptides were diluted to 5 mg/ml concentration in 1×PBS and tested at a concentration of 5 (FIG. 2A), 50 (FIG. 2B), or 250 μg/well (FIG. 2C). A volume of […] of the synthetic peptide was added to each well, after 15–25 min, followed by […] of biotinylated S. aureus cells. The plates were incubated for one hour at room temperature with slight agitation on a shaker. After 1 hr the wells were washed with PBS-0.05% Tween-80 and then incubated 30 min in 1:5000 dilution of secondary antibody streptavidin alkaline phosphatase. After 30 min, wells were washed again and developed with diethanolamine containing p-nitrophenyl phosphate (PNPP; 1 mg/ml) for 30 min at room temperature. The reaction was monitored at 405 nm.

Row | Molecule | inhibitory activity compared to the wild type peptides
3 | ADVVEYEEDTNPGPGQVTTESNLVEFDEEST [DU-14P] | inhibitory activity was detected
4 | QNSGNQSFEEDTEEDKPKYEQPGNIVDIDFDSVPQIHG [D1–22P] | inhibitory activity was detected
5 | QNKGNQSFEEDTEKDKPKYEHPGNIIDIDFDSVPHIHG [D2–22P] | virtually no inhibitory activity
6 | ADVVEYEEDTNPPGGQVTTESNLVEFDEEST [DU-13P] | virtually no inhibitory activity

Same assay, conditions: FIG. 2C, peptides at 250 μg/well; proline scan of D3

Row | Molecule | ability of mutant D3 peptides to inhibit S. aureus binding to Fn
7 | KPSYQFGGHNSVDFEEDTPPK [compound 19] | enhanced S. aureus Fn binding ability
8 | KPSYQFGPHNSVDFEEDTLPK [compound 8] | inhibitory activity of peptides increased
9 | PPSYQFGGHNSVDFEEDTLPK [compound 1] | inhibitory activity of peptides increased
10 | KPSYQFPGHNSVDFEEDTLPK [compound 7] | decreased ability to inhibit S. aureus binding to Fn
11 | KPSYQFGGHNSVDFEEDPLPK [compound 18] | enhanced S. aureus Fn binding ability
12 | KPSYQFGGHNPVDFEEDTLPK [compound 11] | inhibitory activity of peptides increased
13 | KPSYQFGGHNSVDFEEPTLPK [compound 17] | enhanced S. aureus Fn binding ability
14 | KPSYQFGGHNSVDFEEDTLPP [compound 21] | enhanced S. aureus Fn binding ability
15 | KPPYQFGGHNSVDFEEDTLPK [compound 3] | inhibitory activity of peptides increased
16 | KPSYQFGGHNSVDFEPDTLPK [compound 16] | enhanced S. aureus Fn binding ability
17 | KASYQFGGHNSVDFEEDTLPK [compound 2] | inhibitory activity of peptides increased
18 | KPSPQFGGHNSVDFEEDTLPK [compound 4] | decreased ability to inhibit S. aureus binding to Fn

Same assay, conditions: low concentration, 10 μg peptide (FIG. 3A)

Row | Molecule | inhibitory activity compared with control samples (no peptide)
19 | QNSGNQSFEEDTEEDKPKYEQPGNIVDIDFDSVPQIHG [D1–22P] | no inhibitory activity
20 | QNKGNQSFEEDTEKDKPKYEHPGNIIDIDFDSVPHIHG [D2–22P] | no inhibitory activity

Tested on: S. aureus
Assay: not given
Conditions: McGavin et al., 1991; cited from earlier work

Row | Molecule | inhibition of binding of Fn to S. aureus / Fn-binding function
21 | QFGGHNSVDFEEDT [D320-33] | could not inhibit binding of Fn to S. aureus
